Values of other authors, collected in patent US20200323830A1, “TREATMENT OF VIRAL HEMORRHAGIC FEVERS WITH ETORICOXIB” (priority 2019, published 2020).
Like-named read-outs stand apart in the source and are kept apart here.

Assays:
[1] = humans; similar to diclofenac and ibuprofen
[2] = monkeys; similar to diclofenac and ibuprofen
[3] = dose of more than 60 mg/kg/day before admission, dengue subjects
[4] = dengue infection
[5] = chronic therapy, 4 grams daily
[6] = intake within 24 h, dengue subjects
[7] = not given; remark: listed apart in the source
[8] = molecular target: T1, COX-1 activity in circulating platelets (Homo sapiens, UniProt P23219); conditions: therapeutic doses, healthy subjects
T1 construct: COX-1 activity in circulating platelets; endogenous in cells; host or cells: circulating platelets of healthy subjects
T1 sequence (P23219 24-599): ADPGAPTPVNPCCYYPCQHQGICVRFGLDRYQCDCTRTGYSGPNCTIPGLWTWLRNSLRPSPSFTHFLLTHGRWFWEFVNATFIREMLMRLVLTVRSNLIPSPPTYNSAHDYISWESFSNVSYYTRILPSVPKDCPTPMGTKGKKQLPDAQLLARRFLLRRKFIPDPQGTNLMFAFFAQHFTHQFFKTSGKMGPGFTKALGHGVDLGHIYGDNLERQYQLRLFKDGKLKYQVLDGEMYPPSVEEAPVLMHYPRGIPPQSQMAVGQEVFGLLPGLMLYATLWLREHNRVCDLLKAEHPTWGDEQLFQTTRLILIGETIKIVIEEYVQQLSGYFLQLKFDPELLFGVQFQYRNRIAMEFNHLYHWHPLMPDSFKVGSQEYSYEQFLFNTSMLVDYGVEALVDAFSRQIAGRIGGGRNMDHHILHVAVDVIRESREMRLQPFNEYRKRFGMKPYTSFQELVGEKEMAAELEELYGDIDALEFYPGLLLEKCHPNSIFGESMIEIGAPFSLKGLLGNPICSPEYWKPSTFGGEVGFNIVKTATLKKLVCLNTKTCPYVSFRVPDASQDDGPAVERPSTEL

[9] = chronic use for up to one year
[10] = in vivo
[11] = for incidence of joint bleeding: 90 mg, hemophilic arthropathy
[12] = system: platelet aggregation or bleeding time
[13] = versus placebo, acute pain after surgery
[14] = oral, once daily

Structure (SMILES): CS(=O)(=O)c1ccc(C2=C(c3ccccc3)C(=O)OC2)cc1 [rofecoxib]
- antipyretic activity [1]: antipyretic activity
- antipyretic activity [2]: antipyretic activity

Structure (SMILES): CC(=O)Nc1ccc(O)cc1 [acetaminophen/paracetamol]
- occurrence of hepatitis [3]: significantly associated with the occurrence of hepatitis
- transaminase elevation ([4]; median daily dose 1.5 g): caused transaminase elevation
- pain scores, analgesic intake, length of stay, duration of fever ([4]; versus placebo): not significantly different from placebo
- persons with peak serum aminotransferase values ≥3 times the upper normal limit [5]: 39%
- transaminase elevation [6]: significantly associated with transaminase elevation
- share of all cases of acute liver failure (academic centers of the Acute Liver Failure Study Group, 2005): 42%
- share of all cases of acute liver failure (population-based, metropolitan Atlanta, 2007): 41%

Structure (SMILES): Cc1ccc(-c2ncc(Cl)cc2-c2ccc(S(C)(=O)=O)cc2)cn1 [etoricoxib, 5-chloro-2-(6-methylpyridin-3-yl)-3-[4-(trideuteriomethylsulfonyl)phenyl]pyridine]
- median onset of action ([7]; acute pain settings): 24 min
- risk of bleeding ([7]; acute pain studies): not associated with an increased risk of bleeding
- duration of sustained efficacy ([7]; single dose): 24 h
- effect on COX-1 activity in circulating platelets [8]: does not affect COX-1 activity in circulating platelets
- subjects with elevated ALT or AST (≥3 times the upper limit of normal) [9]: 1%
- GI tolerability and safety events [10]: significant improvements
- incidence of joint bleeding ([11]; 6-month extension): 78.9%
- incidence of joint bleeding ([11]; 6-week portion): 66.7%
- serious AEs ([11]; placebo-controlled portion, two events, both on etoricoxib): 3.9%
- COX-2 versus COX-1 selectivity (COX-2 versus COX-1): 106 fold
- effect on platelet aggregation or bleeding time ([12]; doses up to 500 mg): does not affect platelet aggregation or bleeding time
- effects on bleeding time or platelet aggregation ([12]; ex vivo whole-blood assays after multiple oral doses): no important effects on bleeding time or platelet aggregation
- fever AEs [13]: fewer fever AEs than subjects on placebo
- half-life [14]: approximately 22 hours
